Data reported in patent publication US20220168309A1 (F-STAR THERAPEUTICS, INC., priority 2019, published 2022).

Target: STING (Homo sapiens, UniProt Q86WV6)
Assay: STING antagonist activity, cell-based ISG54 promoter-reporter luciferase measurement of IRF activity (THP-1 dual / RAW-ISG cells)
Conditions: Antagonist Activity of Exemplary Compounds; cell line and agonist not given; read-out: IC50
Method: THP-1 dual cells (InvivoGen) were cultured under 5% CO2 at 37° C. in RPMI containing 10% fetal bovine serum (FBS), 100 IU mL-1 penicillin and 100 μg mL-1 streptomycin. RAW-ISG cells (InvivoGen) were cultured under 5% CO2 at 37° C. in DMEM containing 10% fetal bovine serum (FBS), 100 IU mL-1 penicillin and 100 μg mL-1 streptomycin. THP-1 dual cells were seeded into the 96 well assay plate on the day of assay whereas RAW cells were seeded into the 96 well assay plate 18 hours before the assay.
(§1) 50,000 cells seeded in a 96-well flat bottom white assay plate were treated with different concentrations (10 uM to 0.01 uM) of compounds for 1 h followed by STING induction with either 30 nM SB 11285 or 10 ug/mL 2′-3′ cGAMP. The cells were then incubated for 20 hours @ 37° C. in CO2 incubator before measuring IRF activation by using Quanti-Luc (InvivoGen). The % inhibition was calculated as 100−{[(luminescence of COI treated well/luminescence of non-COI treated well)/100]×100}. IC50 was calculated by plotting in Xlfit.
as §1, with “1 μM” for “30 nM”
THP1-Dual-WT cells (InvivoGen) were plated into 96-well flat bottom plate at 5×10^4 cells/140 μL/well in triplicate. Cells were then treated with diluted antagonist compounds at 10 μL/well for 1 h, followed by treatment with compounds or 2′3′-cGAMP/lipo mixture for 18 h. The levels of IRF activity were determined using Quanti-luc (InvivoGen) and calculated against IRF activity in DMSO-treated cells. IC50 and CC50 values were calculated using Xlfit.

STING, sequence (Q86WV6 whole entry): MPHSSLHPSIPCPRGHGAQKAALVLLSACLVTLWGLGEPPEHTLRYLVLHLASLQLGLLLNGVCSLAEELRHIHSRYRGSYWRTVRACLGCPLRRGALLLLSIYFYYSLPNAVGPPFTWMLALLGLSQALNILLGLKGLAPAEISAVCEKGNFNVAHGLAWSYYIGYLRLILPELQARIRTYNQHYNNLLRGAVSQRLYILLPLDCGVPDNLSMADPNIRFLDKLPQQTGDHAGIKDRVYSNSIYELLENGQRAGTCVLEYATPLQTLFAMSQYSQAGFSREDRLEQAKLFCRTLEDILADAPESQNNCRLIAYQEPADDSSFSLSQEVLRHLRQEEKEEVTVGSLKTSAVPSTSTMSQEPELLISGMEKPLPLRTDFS

| Compound | IC50 |
| --- | --- |
| COC(=O)CCCCCCCCCCCCCCCn1c(C#CC2CC2)nc2nc(Cl)nc(Cl)c21 [Compound 70, methyl 16-(2,6-dichloro-8-(cyclopropylethynyl)-7H-purin-7-yl)hexadecanoate] | 1 to 5 µM |
| Clc1nc(Cl)c2c(ncn2C/C=C/Cn2cnc3nc(Cl)nc(Cl)c32)n1 [Compound 54, (E)-1,4-bis(2,6-dichloro-7H-purin-7-yl)but-2-ene] | 1 to 5 µM |
| Cc1nc2nc(Cl)nc(S(=O)(=O)C(C)C)c2n1CCCCCCCCCCCCCCCc1n[nH]c(=O)o1 [Compound 165, 5-(15-(2-chloro-6-(isopropylsulfonyl)-8-methyl-7H-purin-7-yl)pentadecyl)-1,3,4-oxadiazol-2(3H)-one] | 0.001 to 1 µM |
| COC(=O)CCCCCCCCCCCCCCCn1cnc2c(NCCS(N)(=O)=O)nc(Cl)nc21 [Compound 21] | 10 to 20 µM |
| Cc1nc2nc(Cl)nc(Cl)c2n1CCCCCCCCCCn1c(C)nc2nc(Cl)nc(Cl)c21 [Compound 61, 1,10-bis(2,6-dichloro-8-methyl-7H-purin-7-yl)decane] | 0.001 to 1 µM |
| COC(=O)CCCCCCCCCCCCCCCn1cnc2nc(N)nc(Cl)c21 [Compound 5] | 5 to 10 µM |
| CC(C)n1cnc2nc(Cl)nc(Cl)c21 [Compound 49, 2,6-dichloro-7-isopropyl-7H-purine] | > 20 µM |
| COC(=O)CCCCCCCCCCCCCCCn1cnc2ncncc21 [Compound 3] | > 20 µM |
| COC(=O)CCCCCCCCCCCCCCn1c(C)nc2nc(Cl)nc(Cl)c21 [Compound 161, Methyl 15-(2,6-dichloro-8-methyl-7H-purin-7-yl)pentadecanoate] | 0.001 to 1 µM |
| COC(=O)CCCCCCCCCCCCCCCn1cnc2ncnc(Cl)c21 [Compound 1] | 1 to 5 µM |
| Cc1nc2nc(Cl)nc(Cl)c2n1CCCCCCCCCCCCCCCC(=O)OC[C@H](O)CO [Compound 104, (R)-2,3-dihydroxypropyl 16-(2,6-dichloro-8-methyl-7H-purin-7-yl)hexadecanoate] | 0.001 to 1 µM |
| Cc1nc2nc(Cl)nc(Cl)c2n1CCCCn1c(C)nc2nc(Cl)nc(Cl)c21 [Compound 64, 1,4-bis(2,6-dichloro-8-methyl-7H-purin-7-yl)butane] | > 20 µM |
| Cc1nc2c(Cl)nc(Cl)nc2n1C [Compound 83, 2,6-dichloro-8,9-dimethyl-9H-purine] | > 20 µM |
| COC(=O)CCCCCCCCCCCCCCCn1cnc2nccc(Cl)c21 [Compound 41, methyl 16-(7-chloro-1H-imidazo[4,5-b]pyridin-1-yl) hexadecanoate] | > 20 µM |
| COC(=O)CCCCCCCCCCCCCCCn1c(C)nc2nc(Cl)nc(S(C)(=O)=O)c21 [Compound 69, methyl 16-(2-chloro-8-methyl-6-(methylsulfonyl)-7H-purin-7-yl)hexadecanoate] | 0.001 to 1 µM |
| Cc1nc2nc(Cl)nc(Cl)c2n1CCCCCCCCCCCCCCCCN [Compound 163, 16-(2,6-dichloro-8-methyl-7H-purin-7-yl)hexadecan-1-amine] | 0.001 to 1 µM |
| COC(=O)CCCCCCCCCCCCCCCn1c(C)nc2nc(Cl)nc(S(=O)(=O)CCN)c21 [Compound 147, methyl 16-(6-((2-aminoethyl)sulfonyl)-2-chloro-8-methyl-7H-purin-7-yl)hexadecanoate] | 1 to 5 µM |
| Cc1nc2nc(Cl)nc(S(=O)(=O)C(C)C)c2n1CCCCCCCCCCCCCCCC(N)=O [Compound 149, 16-(2-chloro-6-(isopropylsulfonyl)-8-methyl-7H-purin-7-yl)hexadecanamide] | 0.001 to 1 µM |
| COC(=O)CCCCCCN(C)CCCCCCCCn1c(C)nc2nc(Cl)nc(Cl)c21 [Compound 141, Methyl 7-((8-(2,6-dichloro-8-methyl-7H-purin-7-yl)octyl)(methyl)amino)heptanoate] | 0.001 to 1 µM |
| Cc1nc2nc(Cl)nc(Cl)c2n1CCCCCCCCCCCCCCCC#N [Compound 157, 16-(2,6-dichloro-8-methyl-7H-purin-7-yl)hexadecanenitrile] | 0.001 to 1 µM |
| Cc1nc2nc(Cl)nc(S(=O)(=O)C(C)C)c2n1CCCCCCCCCCCCCCCc1noc(=O)n1C [Compound 167, 3-(15-(2-chloro-6-(isopropylsulfonyl)-8-methyl-7H-purin-7-yl)pentadecyl)-4-methyl-1,2,4-oxadiazol-5(4H)-one] | 0.001 to 1 µM |

| Compound | IC50 |
| --- | --- |
| Cc1nc2c(Cl)nc(Cl)nc2n1CCCCCCCCCCCCCCCCO [Compound 76, 16-(2,6-dichloro-8-methyl-9H-purin-9-yl)hexadecan-1-ol] | 5 to 10 µM |
| COC(=O)CCCCCCCCCCCCCCCn1cnc2ncnc(SC)c21 [Compound 27, methyl 16-(6-(methylthio)-7H-purin-7-yl)hexadecanoate] | 5 to 10 µM |
| Clc1nc(Cl)c2c(ncn2CCCCn2cnc3nc(Cl)nc(Cl)c32)n1 [Compound 55, 1,4-bis(2,6-dichloro-7H-purin-7-yl)butane] | 5 to 10 µM |
| Cc1nc2nc(Cl)nc(Cl)c2n1CCCCCCCCCCCCCCCC(=O)OC(CO)CO [Compound 106, 1,3-dihydroxypropan-2-yl 16-(2,6-dichloro-8-methyl-7H-purin-7-yl)hexadecanoate] | 1 to 5 µM |
| COC(=O)CCCCCCCCCCCCCCCn1cnc2nc(F)nc(Cl)c21 [Compound 38, methyl 16-(6-chloro-2-fluoro-7H-purin-7-yl)hexadecanoate] | 1 to 5 µM |
| Cc1nc2nc(Cl)nc(Cl)c2n1CCCCCCCCCCCCCCCC(=O)OC[C@@H](O)CO [Compound 107, (S)-2,3-dihydroxypropyl 16-(2,6-dichloro-8-methyl-7H-purin-7-yl)hexadecanoate] | 1 to 5 µM |
| COC(=O)CCCCCCCCCCCCCCCn1cnc2c(Cl)ccnc21 [Compound 42, methyl 16-(7-chloro-3H-imidazo[4,5-b]pyridin-3-yl) hexadecanoate] | > 20 µM |
| COCc1nc2nc(Cl)nc(Cl)c2n1CCCCCCCCCCCCCCCC(=O)OC [Compound 92, Methyl 16-(2,6-dichloro-8-(methoxymethyl)-7H-purin-7-yl)hexadecanoate] | 0.001 to 1 µM |
| COC(=O)CCCCCCCCCCCCCCCn1c(CN2CCOCC2)nc2nc(Cl)nc(Cl)c21 [Compound 154, methyl 16-(2,6-dichloro-8-(morpholinomethyl)-7H-purin-7-yl)hexadecanoate] | 0.001 to 1 µM |
| Cc1nc2nc(Cl)nc(S(=O)(=O)C(C)C)c2n1CCCCCCCCCCCCCCCC(=O)OC[C@H](O)CO [Compound 133, (R)-2,3-dihydroxypropyl 16-(2-chloro-6-(isopropylsulfonyl)-8-methyl-7H-purin-7-yl)hexadecanoate] | 1 to 5 µM |
| COc1ccc(Cn2c(C)nc3nc(Cl)nc(Cl)c32)cc1 [Compound 67, 2,6-dichloro-7-(4-methoxybenzyl)-8-methyl-7H-purine] | 1 to 5 µM |
| COC(=O)CCCCCCCCCCCCCCCn1cnc2nc(NC(C)=O)nc(Cl)c21 [Compound 46, methyl 16-(2-acetamido-6-chloro-7H-purin-7-yl) hexadecanoate] | > 20 µM |
| COC(=O)CCCCCCCCCCn1cnc2nc(Cl)nc(Cl)c21 [Compound 7] | 0.001 to 1 µM |
| CCCCCCCCCCCCCCCCn1c(C)nc2nc(Cl)nc(S(=O)(=O)C(C)C)c21 [Compound 97, 2-chloro-7-hexadecyl-6-(isopropylsulfonyl)-8-methyl-7H-purine] | 0.001 to 1 µM |
| COC(=O)CCCCCOC1CCN(CCCCCCn2c(C)nc3nc(Cl)nc(Cl)c32)CC1 [Compound 156, Methyl 6-((1-(6-(2,6-dichloro-8-methyl-7H-purin-7-yl)hexyl)piperidin-4-yl)oxy)hexanoate] | 1 to 5 µM |
| COC(=O)CCCCCCN(C)CCCCCCCCn1c(C)nc2nc(Cl)nc(S(=O)(=O)C(C)C)c21 [Compound 152, Methyl 7-((8-(2-chloro-6-(isopropylsulfonyl)-8-methyl-7H-purin-7-yl)octyl)(methyl)-amino)heptanoate] | 1 to 5 µM |
| Cc1nc2nc(Cl)nc(S(=O)(=O)C(C)C)c2n1CCCCCCCCCCCCCCCC#N [Compound 164, 16-(2-chloro-6-(isopropylsulfonyl)-8-methyl-7H-purin-7-yl)hexadecanenitrile] | 0.001 to 1 µM |
| Cc1nc2nc(Cl)nc(S(=O)(=O)C(C)C)c2n1CCCCCCCCCC[N+]1([O-])CCOCC1 [Compound 115, 4-(10-(2-chloro-6-(isopropylsulfonyl)-8-methyl-7H-purin-7-yl)decyl)-4-(11-oxidanyl)-4l4-morpholine] | > 20 µM |
| Cc1nc2nc(Cl)nc(Cl)c2n1CCCCCCCl [Compound 65, 2,6-dichloro-7-(6-chlorohexyl)-8-methyl-7H-purine] | 1 to 5 µM |
| COC(=O)C(C)(C)n1cnc2nc(Cl)nc(Cl)c21 [Compound 56, methyl 2-(2,6-dichloro-7H-purin-7-yl)-2-methylpropanoate] | > 20 µM |
| CCCCCCCCCCCCCCCCn1cnc2nc(Cl)nc(Cl)c21 [Compound 26, 2,6-dichloro-7-hexadecyl-7H-purine] | 0.001 to 1 µM |
